{
  "source": "patent US20130136778A1",
  "about": "“PTEROSTILBENE (PTER) FOR USE IN THE PREVENTION AND/OR TREATMENT OF SKIN DISEASES, DAMAGES OR INJURIES” (GREEN MOLECULAR, S.L., priority 2009, published 2013)",
  "key": {"[1]": {"tested_on": "SKH-1 mice", "test": "Experimental atopic dermatitis induced by TNCB", "format": "in vivo", "protocol": "Also, on certain specific days prior to sacrificing them, the mice were assessed by a veterinarian who analyzed the skin lesions, qualifying them in function of: • Erythema: redness of the skin conditioned by inflammation due to the excess of blood irrigation by the dilation of blood vessels. • Excoriation: or irritation of the skin with flaky aspect, increase in the descaling of the skin which could result in hyperkeratosis. • The depth of the lesion that could reach the dermis producing soars or ulcers. Each variable was evaluated on a scale of 0-4, 0, for none; 1, for mild; 2, for moderate; 3, marked; and 4, very marked. The addition of the 3 values of each mouse indicated the degree of inflammation. […] Furthermore, the continuous administration of TNCB ointment increased the production of T-lymphocytes, mastocytes and IgE in the serum, as it occurs among human patients with atopic dermatitis. […] Nonetheless, the objective evaluation of these characteristics is complex, and the measuring of the loss of transepidermal water (PTEA or TEWL) assessed through the Tewameter TM 210 system (CK electronics, Germany) is considered an indicator of the functions of cutaneous “barriers” (g/h/cm2). […] TEWL readings were performed continuously until the metrics were stabilized, which can produce between 30-60 seconds of readings."}, "[2]": {"tested_on": "SKH-1 mice", "test": "Skinfold thickness (edema) after acute UV-B exposure of 360 mJ/cm2", "format": "in vivo", "protocol": "UVB Acute exposure protocols were used: Mice underwent a single exposure of 360 mJ/cm2. The study was conducted at 24 hours after exposure. This protocol was used to evaluate the photoprotective effect of the compounds studied. With the same acute-phase protocol mice from all groups were irradiated. Subsequently mice remained in the animal storage area for a week to see the evolution of the inflammatory response and edema. For the UVB exposure studies (chronic or acute) a topical administration to the back of the mouse was conducted. The commercial sunscreens were applied directly on the mouse. The polyphenols in the study were administered in a liposomal preparation diluted 1:1 with Carbopol polymer which will be the vehicle for these liposomes. Each polyphenol dose administered was 10 μmol/mouse, as free acid. • 1. Edema formation: skinfold thickness was determined with a caliper 24 hours after the first exposure. • 2. Study of the thickness of the epidermis after exposure to acute irradiation (360 mj/cm^2 24 h hours and 7 days after irradiation). • 3. Histological studies: measuring, in the pictures obtained from histological sections, the thickness of the epidermis. With the purpose of assessing the effects of the photoprotective compounds studied, female mice SKH-1 of between 6-8 weeks old were subjected to a single exposure of 360 mJ/cm. For the ultraviolet B (UVB) irradiation exposure, a camera specifically prepared, available at our laboratory was used (Crosslinker; Bio-Link BLX 254) equipped with 5 tubes that produce 80% of the UVB radiation, with a maximum emission of 312 nm. The two protocols of UV-B exposure used were: • Intense exposure after a single exposure of 360 mJ/cm^2. The study was carried out 24 hours after the exposure. This protocol was used to assess the photoprotective effects of the compounds studied. • Intense exposure after a single exposure of 360 mJ/cm^2. The study was carried out 1 week after the exposure. The mice were kept in the shed for a week to observe the evolution of the inflammatory and edematous response. As reference, several commercial photoprotective products were used ([…] Heliocare). The reference compounds as well as the products object of this study, were applied on the back of the mice for 20 minutes after or 20 minutes before the irradiation with UV-B, to determine if the reaction observed was due to an effect of the solar filter or not. […] The skinfold was measured by making a fold on the skin from the back of the mice, from the axillae to the hips; the fold was measured with a vernier caliper. The increase in the fold was calculated by the difference between the initial point, before the effects of the reaction, and the thickness in each point."}},
  "data": [
    {"compound": "COc1cc(/C=C/c2ccc(O)cc2)cc(OC)c1", "note": "[PTER, 3,5-dimethoxy-4′-hydroxy-trans-resveratrol]", "values": [
      {"measurement": "increase in the skinfold 24 hours after the first administration of TNCB", "setting": "[1]; FIG. 19, 10 μmoles polyphenols, 0.5 μmoles dexamethasone 24 h before 1% TNCB", "value": "decreased their inflammatory effect due to the TNCB agent"},
      {"measurement": "index of lesions (macroscopic assessment)", "setting": "[1]; TNCB model, up to 4 applications of TNCB", "value": "produced less serious lesions than with the use of dexamethasone or with respect to the lack of treatment"},
      {"measurement": "formation of the edema (thickness of the skin) after severe UV-B exposure", "setting": "[2]; FIG. 1", "value": "the formation of the edema was reduced"},
      {"measurement": "skinfold thickness 24 h after irradiation, applied after UVB", "setting": "[2]; FIG. 1, applied 20 min after", "value": "more efficient for the treatment of skin diseases, damages or injuries due to radiation, when applied after the exposure to UVB, than the commercial creams (Vichy, Heliocare and Isdin) and that RESV"},
      {"measurement": "skinfold thickness 24 h after irradiation, applied before UVB", "setting": "[2]; FIG. 1, applied 20 min before", "value": "more efficient as photoprotector, when applied before the exposure to UVB, than the commercial creams (Vichy, Heliocare and Isdin) and that RESV"}
    ]}
  ]
}
